Where two headings read alike, the source gives them in different places.
How the values were obtained:
Common ragweed = experiment: Ex16 PRE 2,4-DC + pyroxasulfone, % control 28 DAT, Colby; type: in vivo, Ambrosia artemisiifolia
Text: To determine PRE efficacy, five levels of 2,4 DC (36.7% CS) 0, 125, 170, 210, or 250 g ai/ha and five levels of pyroxasulfone (KIH485-85WG) 0, 50, 65, 80, or 95 g ai/ha were applied either alone or as tank-mix. Additional treatments consisted of premix of pyroxasulfone plus fluthiacet-methyl (Anthem™ 23.3%) at 169.9 g ai/ha, S-metolachlor (Dual II Magnum, 82.4%) at 1388 g, and tank-mix of mesotrione (Callisto, 40%) at 123 g plus S-metolachlor at 1252 g. […] Treatments were applied before the emergence of black nightshade, giant foxtail, green foxtail, yellow foxtail, large crabgrass, kochia, redroot pigweed, common ragweed, and barnyardgrass.
Flats were watered and fertilized routinely after treatment application. Each treatment was replicated three times.

Wild oat = experiment: Ex12 PRE 2,4-DC + dimethenamid-P, % control 28 DAT, Colby; type: in vivo, Avena fatua
Description: The tested weeds include: wild buckwheat (Polygonum convolvulus, POLCO), velvetleaf (Abutilon theophrasti, ABUTH), cheat (Bromus secalinus, BROSE), wild oat (Avena fatua, AVEFA), radish (Raphanus sativus, RAPSN), corn poppy (Papaver rhoeas, PAPRH), yellow foxtail (Setaria pumila, SETLU), Italian ryegrass (Lolium perenne ssp. multiflorum, LOLMU). The tested crop was Oilseed rape.
This greenhouse study was conducted to assess the preemergence (PRE) weed control and oilseed rape tolerance with 2,4 DC (CS 36.7%) and dimethenamid-P (Outlook®, 63.9%) tank-mix combinations.
Metazachlor (Butisan, 43.1%) plus dimethenamid-P applied as tank mix at 500 g each was applied as commercial standard. Treatments were replicated 3 times and flats were watered after planting but before the treatment and then lightly watered after treatment application. Thereafter flats were watered and fertilized routinely.

weeds; Corn = experiment: Ex25 PRE greenhouse; type: in vivo; conditions: rate in the words
Text: The crop tested in this study was Corn.
2,4 DC-21 (36.7% CS) was applied PRE at 0, 125, 170, 210, or 250 g ai/ha alone or as a tank-mix with pyroxasulfone (KIH-485, 85% WP) at 0, 50, 65, 80, or 95 g ai/ha. Pyroxasulfone plus fluthiacet-methyl (Anthem™, 23.3%) applied at 169.9 g ai/ha, s-metolachlor (Dual II Magnum®, 82.4%) applied at 1389 g, and the tank-mix of mesotrione (Callisto®, 40%) at 123 g plus s-metolachlor (Dual II Magnum®, 82.4%) at 1252 g were included as a standards for comparison. […] Thereafter flats were watered and fertilized routinely.

barnyardgrass (BG) = experiment: Ex5 PRE greenhouse, % control; type: in vivo, Echinochloa crus-galli; conditions: 28 DAT, g ai/ha by row: r10-26 2,4-DC 50/100/200 (3 rows each) + mesotrione 25/50/100 (cycling)
Description: Test compositions containing 2,4-DC Example 1C and mesotrione (Callisto® Herbicide, 40% active ingredient, Syngenta) and mixtures of 2-(2,4-dichlorophenyl)methyl-4,4-dimethyl-3-isoxazolidinone and mesotrione, were diluted with water to provide the appropriate test rate concentration.
The test weeds were barnyardgrass (BG) (Echinochloa crus-galli), jimsonweed (PA) (Datura stramonium), velvetleaf (VL) (Abutilon theophrasti), common cockelbur (CC) (Xanthium strumarium) and hairy beggarticks (HB) (Bidens pilosa). Crops included in the evaluation were field corn and sorghum.
For pre-emergence testing, four disposable fiber flats (6″ by 10″) for each rate of application of each herbicide solution were filled with top soil, to which seeds of each species were planted in furrows made by a template pressed on the top of the soil. The furrows with seeds were covered with soil and were watered well before application of the test compounds. Flats designated for treatment were placed in a spray chamber having a static platform and a movable sprayer and height of the spray nozzle was 10.5 inches above the soil level. Once the sprayer was calibrated using water for spray volume of 30 gallons per acre, flats were sprayed with sprayer at a speed to receive a coverage equivalent of 30 gallons per acre.
The application rates are those shown in Table 4 below for the individual herbicidal solutions and the herbicide compositions of the present invention. The pre-emergence flats were immediately placed in the greenhouse and watered lightly after treatment. Thereafter they were regularly watered and fertilized for the duration of the test. The control of weeds and injury to crops was evaluated in each experimental test at 28 days after treatment (DAT). […] Percent control was determined by a method similar to the 0 to 100 rating system disclosed in “Research Methods in Weed Science,” 2nd ed., B. Truelove, Ed.; Southern Weed Science Society; Auburn University, Auburn, Ala., 1977.

Blackgrass = experiment: Ex13 PRE 2,4-DC + diflufenican, % control 28 DAT, Colby; type: in vivo, Alopecurus myosuroides
Text: (§1) Pyroxasulfone (KIH-485, 85%) at 74.3 g ai/ha, pendimethalin (Prowl 3.3EC, 37.4%) at 1200 g ai/ha, or a premix of chlorsulfuron plus metsulfuron-methyl (Report Extra, 75%) at 15.8 g ai/ha were applied as commercial standards. […] Treatments were replicated 3 times and flats were watered after planting before the treatment and lightly watered after treatment application. Thereafter flats were watered and fertilized routinely.

weeds; canola = experiment: Ex34 PRE greenhouse; type: in vivo; conditions: rate in the words
Text: Thereafter flats were watered and fertilized routinely.

canola and wheat = experiment: Ex43 PRE crop safety; type: in vivo; conditions: crop and rate in the words
Common lambsquarters = experiment: Ex13 PRE 2,4-DC + diflufenican, % control 28 DAT, Colby; type: in vivo, Chenopodium album
Text: as §1

wheat = type: in vivo; conditions: 14 DAT, POST, 2,4-DC 210 g ai/ha
Description: (§2) Treatments were applied to wheat and barley crops.
(§3) Nonionic surfactant was added at 0.5% v/v in all treatments. Treatments were applied to wheat (5.5″), barley (5″), wild oat (5.5″), common chickweed (2″), wild buckwheat (3″), and common lambsquarters (2″). All plant species were direct seeded into 3″ plastic pots using metro-mix as growth media and pots were watered well before application and watered 24 h after application. Plants were watered and fertilized routinely after treatment application. Each treatment was replicated four times.

Barley = type: in vivo; conditions: 14 DAT
Description: as §2, §3

Work on CC1(C)CON(Cc2ccc(Cl)cc2Cl)C1=O [2,4-DC, 2-(2,4-dichlorophenyl)methyl-4,4-dimethyl-3-isoxazolidinone] yielded an X (Common ragweed; 2,4-DC alone 125 g ai/ha) of 33%, an X (Common ragweed; 2,4-DC alone 170 g ai/ha) of 40% and an X (Common ragweed; 2,4-DC alone 210 g ai/ha) of 40%. It also gave an X (Common ragweed; 2,4-DC alone 250 g ai/ha) of 45%, an X (Wild oat; 2,4-DC alone 125 g ai/ha) of 9% and an X (Wild oat; 2,4-DC alone 170 g ai/ha) of 27%. For the same compound, the X (Wild oat; 2,4-DC alone 210 g ai/ha) was 27%, the X (Wild oat; 2,4-DC alone 250 g ai/ha) was 29% and the “weed control / crop safety in words” value (weeds; Corn) was “applied alone controlled (≥85% injury) black nightshade at 170 g ai/ha, did not provide control of other weeds tested when applied alone at any rate, and was safe on corn at all rates”. The “% Control BG” value (barnyardgrass (BG); r28-30 2,4-DC 50/100/200, r31-33 mesotrione 25/50/100, 50 g ai/ha) was 97%, the “% Control BG” value (barnyardgrass (BG); r28-30 2,4-DC 50/100/200, r31-33 mesotrione 25/50/100, 100 g ai/ha) was 99% and the X (Blackgrass; 2,4-DC alone 125 g ai/ha) was 23%. For the same compound, the X (Blackgrass; 2,4-DC alone 170 g ai/ha) was 53%, the X (Blackgrass; 2,4-DC alone 210 g ai/ha) was 66% and the X (Blackgrass; 2,4-DC alone 250 g ai/ha) was 68%. The “weed control / crop safety in words” value (weeds; canola) was “applied alone at 31.2 g ai/ha controlled common chickweed, at 125 g controlled common lambsquarters and injured canola, at 250 g controlled blackgrass and Italian ryegrass”, the “crop safety in words” value (canola and wheat) was “alone was safe (≤10% injury) on canola at ≤200 g ai/ha and safe on wheat at ≤100 g” and the X (Common lambsquarters; 2,4-DC alone 125 g ai/ha) was 15%. The X (Common lambsquarters; 2,4-DC alone 170 g ai/ha) was 26%, the X (Common lambsquarters; 2,4-DC alone 210 g ai/ha) was 58% and the X (Common lambsquarters; 2,4-DC alone 250 g ai/ha) was 60%. The “% crop injury for 2,4-DC alone” value (wheat) was 31%, the “% crop injury for 2,4-DC alone” value (Barley; POST, 2,4-DC 125 g ai/ha) was 17% and the “% crop injury for 2,4-DC alone” value (Barley; POST, 2,4-DC 170 g ai/ha) was 17%. The “% crop injury for 2,4-DC alone” value (Barley; POST, 2,4-DC 210 g ai/ha) was 18% and the “% crop injury for 2,4-DC alone” value (Barley; POST, 2,4-DC 250 g ai/ha) was 23%.
